Experimental data from PubChem BioAssay (NCI).
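Interpolation was linear, between the two tested concentrations surrounding the appropriate level; five concentrations were tested over 48 hours in 96-well plates. The concentration for 50% growth inhibition is given as GI50. The concentration for full growth arrest is given as TGI.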

Columns and labels:
Assay in all cases: NCI tumour cell line growth inhibition, 48 h
SR leukemia = system: SR leukemia
OVCAR-8 ovarian = system: OVCAR-8 ovarian
SF-268 CNS = system: SF-268 CNS
K-562 leukemia = system: K-562 leukemia
IGROV1 ovarian = system: IGROV1 ovarian
RPMI-8226 leukemia = system: RPMI-8226 leukemia
SNB-75 CNS = system: SNB-75 CNS
A498 renal = system: A498 renal

Row | SMILES | GI50 (SR leukemia) | TGI (SR leukemia) | GI50 (OVCAR-8 ovarian) | TGI (OVCAR-8 ovarian) | GI50 (SF-268 CNS) | TGI (SF-268 CNS) | GI50 (K-562 leukemia) | TGI (K-562 leukemia) | GI50 (IGROV1 ovarian) | TGI (IGROV1 ovarian) | GI50 (RPMI-8226 leukemia) | TGI (RPMI-8226 leukemia) | GI50 (SNB-75 CNS) | TGI (SNB-75 CNS) | GI50 (A498 renal) | TGI (A498 renal)
1 | COC1C(O)CC(OC2CC(OC3CC(O[C@@H]4C(=O)c5c(cc6cc(OC7CC(OC8CC(O)C(O)C(C)O8)C(O)C(C)O7)c(C)c(O)c6c5O)CC4[C@H](OC)[C@@H](O)C(C)=O)OC(C)C3O)OC(C)C2O)OC1C (stereo partly specified) | 0.00624 µM | 1.65 µM | 0.0217 µM | > 33.3 µM | 0.0155 µM | > 33.3 µM | 0.0163 µM | > 33.3 µM | 0.0197 µM | > 33.3 µM | 0.014 µM | > 33.3 µM | 0.0184 µM | 3.32 µM | 0.0214 µM | 0.103 µM
2 | O=C(Nc1ccc(-n2ccc3c(NC(=O)c4ccccc4)nccc32)cc1)c1ccc(N2CCOCC2)c(C(F)(F)F)c1 | < 0.0189 µM | > 100 µM | 0.115 µM | 56.2 µM | 0.122 µM | > 77.1 µM | 0.0429 µM | > 100 µM | 0.192 µM | > 42.6 µM | 0.0912 µM | > 100 µM | 0.518 µM | 13.9 µM | 2.19 µM | 26.6 µM
3 | COc1ccc(C(=O)c2cc(C)c(OC)c(C)c2)c(OC)c1N(C(=O)CCl)C(=O)CCl | 0.045 µM | > 100 µM | 0.062 µM | > 92.4 µM | 0.548 µM | 46 µM | 0.0557 µM | > 100 µM | 0.0738 µM | 3.83 µM | 0.118 µM | 15.1 µM | 0.0274 µM | 27.3 µM | 0.0244 µM | 0.103 µM
4 | NC(N)=NC(N)=Nc1ccc(S(N)(=O)=O)cc1 | – | > 100 µM | – | > 100 µM | – | > 100 µM | – | > 100 µM | – | > 100 µM | – | > 100 µM | – | > 100 µM | – | > 100 µM
5 | Cc1ccccc1C[P+](c1ccccc1)(c1ccccc1)c1ccccc1 | 2.02 µM | > 100 µM | 1.48 µM | > 100 µM | 1.89 µM | > 100 µM | 0.786 µM | > 100 µM | 2.42 µM | > 100 µM | 0.39 µM | 5.4 µM | 1.21 µM | 16.2 µM | 1.93 µM | 12.7 µM
6 | Cc1cc(C)c(O)c(CNCCCNCc2cc(C)cc(C)c2O)c1 | 2.06 µM | 6 µM | 5.09 µM | 20.3 µM | 5.97 µM | 21.2 µM | 2.11 µM | 4.89 µM | 4.52 µM | 18.5 µM | 3.03 µM | 8.72 µM | 1.39 µM | 2.78 µM | 1.71 µM | 9.24 µM
7 | COC(=O)CCCNC(=O)C(=O)c1c(O)c(O)c(C(C)C)c2cc(C)c(-c3c(C)cc4c(C(C)C)c(O)c(O)c(C(=O)C(=O)NCCCC(=O)OC)c4c3O)c(O)c12 | 0.706 µM | 3.17 µM | 0.604 µM | 2.5 µM | 0.435 µM | 5.13 µM | 0.246 µM | 6.88 µM | 0.499 µM | 13 µM | 0.592 µM | > 32.5 µM | 1.43 µM | 19.1 µM | 1.36 µM | 14.3 µM
8 | COCC(=O)NC/C=C/c1ccc2ncnc(Nc3ccc(Oc4ccc(C)nc4)c(C)c3)c2c1 | 10.7 µM | 50.4 µM | 15.9 µM | 92.4 µM | 15.7 µM | 50.9 µM | 17.8 µM | > 91.4 µM | 15.9 µM | > 89.2 µM | 8.75 µM | 36.1 µM | 12.5 µM | 27.2 µM | 4.13 µM | 32.6 µM
9 | CCCc1n(Cc2ccc3ccccc3n2)cc[n+]1Cc1ccc2ccccc2c1 | 0.472 µM | 3.03 µM | 0.779 µM | 4.65 µM | 1.01 µM | 10.6 µM | 0.428 µM | 8.27 µM | 0.807 µM | 3.48 µM | 0.275 µM | 1.62 µM | 0.41 µM | 3.47 µM | 1.81 µM | 6.68 µM
10 | CN1CCN(Cc2ccc(NC(=O)c3cccc(C#Cc4c(N)ncc5ccc(F)cc45)c3)cc2C(F)(F)F)CC1 | 1.02 µM | 2.71 µM | 1.03 µM | 2.56 µM | 0.719 µM | 1.58 µM | 0.005 µM | 0.674 µM | 0.597 µM | 1.4 µM | 1.03 µM | 2.59 µM | 0.257 µM | 0.866 µM | 0.578 µM | 1.26 µM
11 | C[C@@H]1OC(=O)NN=C1c1ccc(-c2ccc(F)cc2)c(C(F)(F)F)c1 | 2.58 µM | 13 µM | 12.7 µM | 31.1 µM | 1.03 µM | 21.5 µM | 3.2 µM | > 100 µM | 14.2 µM | 29.9 µM | 5.78 µM | 51.2 µM | 5 µM | 20.4 µM | 15.5 µM | 29.5 µM
12 | CCC(=O)Nc1ncnc2ncn(C(=O)CC)c12 | – | > 100 µM | – | > 100 µM | – | > 100 µM | – | > 100 µM | – | > 100 µM | – | > 100 µM | – | > 100 µM | – | > 100 µM
